Results taken from patent US9073895B2 (Boehringer Ingelheim International GmbH, priority 2010, dated 2015).

These compounds were tested against T1, recombinant human FLAP protein (Homo sapiens, UniProt P20292) (assay: FLAP binding assay (SPA, displacement of [125I]L-691,831)). Conditions: membranes of sf9 cells expressing human FLAP, [125I]L-691,831 probe; read-out: hFLAP binding IC50.
T1 construct: made in house; host or cells: Sf9 insect cells (membrane fraction, 100,000 x g pellet)
T1 sequence (P20292 1-161): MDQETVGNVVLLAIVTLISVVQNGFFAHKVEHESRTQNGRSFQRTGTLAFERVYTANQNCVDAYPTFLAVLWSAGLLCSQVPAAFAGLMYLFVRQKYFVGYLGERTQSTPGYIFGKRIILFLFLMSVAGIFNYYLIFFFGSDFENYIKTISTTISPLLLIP
Method: Compounds are assessed for the ability to bind to FLAP in a binding assay that measures compound-specific displacement of an iodinated (^125I) FLAP inhibitor via a Scintillation Proximity Assay format (adapted from S. Charleson et al., Mol. Pharmacol., 1992, 41, 873-879).
Cell pellets produced from sf9 insect cells expressing recombinant human FLAP protein are resuspended in buffer A [15 mM Tris-HCl (pH 7.5), 2 mM MgCl2, 0.3 mM EDTA, 1 mM PMSF]. The cells are lysed with a Dounce homogenizer and the material is centrifuged at 10,000×g for 10 minutes. The supernatant is then collected and centrifuged at 100,000×g for 60 minutes. To prepare membrane protein for an assay, an aliquot of the 100,000×g pellet is resuspended in 1 ml of buffer A, Dounce homogenized, and finally subjected to polytron mixing (30 seconds). Membrane protein (25 μl, 5 μg) is mixed with WGA SPA beads (Amersham) and stirred for 1 h. To an assay plate (Perkin Elmer FlexiPlate) is added 25 μl of test compound prepared in Binding buffer [100 mM Tris (pH 7.5), 140 mM NaCl, 5% glycerol, 2 mM EDTA, 0.5 mM TCEP, 0.05% Tween 20], 25 μl of [^125I]L-691,831 (an iodinated analog of MK-591, Charleson et al. Mol. Pharmacol., 41, 873-879, 1992) and finally 50 μl of the bead/protein mixture. (final concentrations: beads, 200 μg/well; protein, 5μg/well; [^125I] probe, 0 08 nM/well(17 nCi/well). The plates are shaken for 2 h before reading on a Microbeta plate reader. Non-specific binding is determined by the addition of 10 μM cold L-691,831 compound.
An IC50 of 330 nM was found for `CC(C)(C)c1ccc(NC(=O)C2(c3ccc(-c4cnc(N)nc4)cc3)CCOCC2)cc1` [Example 17, 4-[4-(2-aminopyrimidin-5-yl)phenyl]-N-(4-tert-butylphenyl)tetrahydro-2H-pyran-4-carboxamide] in this work. An IC50 of 26 nM was found for `Nc1ncc(-c2ccc(C3(C(=O)Nc4ccc(C(=O)O)cn4)CCC3)cc2)cn1` [Example 96, 6-[({1-[4-(2-aminopyrimidin-5-yl)phenyl]cyclobutyl}carbonyl)amino]pyridine-3-carboxylic acid] in this work. An IC50 of 270 nM was found for `CC(=O)Nc1ccc(-c2ccc(C3(C(=O)Nc4ccc(-c5csc(C)n5)cn4)CCOCC3)cc2)cn1` [Example 206, 4-{4-[6-(acetylamino)pyridin-3-yl]phenyl}-N-[5-(2-methyl-1,3-thiazol-4-yl)pyridin-2-yl]tetrahydro-2H-pyran-4-carboxamide] in this work. An IC50 of 230 nM was found for `COCCNc1ncc(-c2ccc(C3(C(=O)Nc4ccc(-c5csc(C)n5)cn4)CCOCC3)cc2)cn1` [Example 207, 4-(4-{2-[(2-methoxyethyl)amino]pyrimidin-5-yl}phenyl)-N-[5-(2-methyl-1,3-thiazol-4-yl)pyridin-2-yl]tetrahydro-2H-pyran-4-carboxamide] in this work. An IC50 of 380 nM was found for `Nc1ncc(-c2ccc(C3(C(=O)Nc4cc(-c5ccccn5)no4)CCOCC3)cc2)cn1` [Example 56, 4-[4-(2-aminopyrimidin-5-yl)phenyl]-N-[3-(pyridin-2-yl)-1,2-oxazol-5-yl]tetrahydro-2H-pyran-4-carboxamide] in this work. An IC50 of 34 nM was found for `Nc1ncc(-c2ccc(C3(C(=O)Nc4ccc(N5CCOCC5)cc4)CCC3)cc2)cn1` [Example 246, 1-[4-(2-aminopyrimidin-5-yl)phenyl]-N-[4-(morpholin-4-yl)phenyl]cyclobutanecarboxamide] in this work. An IC50 of 10.8 nM was found for `COc1ccc(-c2nc(NC(=O)C3(c4ccc(-c5cnc(N)nc5)cc4)CCC3)n[nH]2)cc1` [Example 244, 1-[4-(2-aminopyrimidin-5-yl)phenyl]-N-[5-(4-methoxyphenyl)-1H-1,2,4-triazol-3-yl]cyclobutanecarboxamide] in this work. An IC50 of 15 nM was found for `Cc1cc(NC(=O)C2(c3ccc(-c4cnc(N)nc4)cc3)CCC2)nc(C)n1` [Example 212, 1-[4-(2-aminopyrimidin-5-yl)phenyl]-N-(2,6-dimethylpyrimidin-4-yl)cyclobutanecarboxamide] in this work. An IC50 of 200 nM was found for `Nc1ncc(-c2ccc(C3(C(=O)Nc4ccc5c(c4)OCO5)CCOCC3)cc2)cn1` [Example 9, 4-[4-(2-aminopyrimidin-5-yl)phenyl]-N-(1,3-benzodioxol-5-yl)tetrahydro-2H-pyran-4-carboxamide] in this work. An IC50 of 140 nM was found for `Nc1ncc(-c2ccc(C3(C(=O)Nc4cc(C(F)(F)F)ccn4)CCOCC3)cc2)cn1` [Example 31, 4-[4-(2-aminopyrimidin-5-yl)phenyl]-N-[4-(trifluoromethyl)pyridin-2-yl]tetrahydro-2H-pyran-4-carboxamide] in this work. An IC50 of 17.5 nM was found for `CS(=O)(=O)NC(=O)c1ccc(NC(=O)C2(c3ccc(-c4cnc(N)nc4)cc3)CCC2)nc1` [Example 105, 6-[({1-[4-(2-aminopyrimidin-5-yl)phenyl]cyclobutyl}carbonyl)amino]-N-(methylsulfonyl)pyridine-3-carboxamide] in this work. An IC50 of 310 nM was found for `CC(=O)N1CCc2cc(NC(=O)C3(c4ccc(-c5cnc(N)nc5)cc4)CCOCC3)ccc21` [Example 42, N-(1-acetyl-2,3-dihydro-1H-indol-5-yl)-4-[4-(2-aminopyrimidin-5-yl)phenyl]tetrahydro-2H-pyran-4-carboxamide] in this work. An IC50 of 410 nM was found for `Nc1ncc(-c2ccc(C3(C(=O)Nc4ccc(C(=O)O)cn4)CCOCC3)cc2)cn1` [Example 157, 6-[({4-[4-(2-aminopyrimidin-5-yl)phenyl]tetrahydro-2H-pyran-4-yl}carbonyl)amino]pyridine-3-carboxylic acid] in this work. An IC50 of 490 nM was found for `Cc1cccc(-c2cnc(NC(=O)C3(c4ccc(-c5cnc(N)nc5)cc4)CCOCC3)nc2)c1` [Example 156, 4-[4-(2-aminopyrimidin-5-yl)phenyl]-N-[5-(3-methylphenyl)pyrimidin-2-yl]tetrahydro-2H-pyran-4-carboxamide] in this work. An IC50 of 110 nM was found for `CN(C)S(=O)(=O)c1cccc(NC(=O)C2(c3ccc(-c4cnc(N)nc4)cc3)CCOCC2)c1` [Example 77, 4-[4-(2-aminopyrimidin-5-yl)phenyl]-N-[3-(dimethylsulfamoyl)phenyl] tetrahydro-2H-pyran-4-carboxamide] in this work. An IC50 of 16 nM was found for `Cc1nc(-c2ccc(NC(=O)C3(c4ccc(-c5cnc(N)nc5)cc4)CC3)nc2)cs1` [Example 251, 1-[4-(2-aminopyrimidin-5-yl)phenyl]-N-[5-(2-methyl-1,3-thiazol-4-yl)pyridin-2-yl]cyclopropanecarboxamide] in this work. An IC50 of 3.95 nM was found for `Nc1ncc(-c2ccc(C3(C(=O)Nc4nc(-c5ccccc5)ns4)CCC3)cc2)cn1` [Example 242, 1-[4-(2-aminopyrimidin-5-yl)phenyl]-N-(3-phenyl-1,2,4-thiadiazol-5-yl)cyclobutanecarboxamide] in this work. An IC50 of 180 nM was found for `CCOC(=O)c1ccnc(NC(=O)C2(c3ccc(-c4cnc(N)nc4)cc3)CCOCC2)c1` [Example 84, ethyl 2-[({4-[4-(2-aminopyrimidin-5-yl)phenyl]tetrahydro-2H-pyran-4-yl}carbonyl)amino]pyridine-4-carboxylate] in this work. An IC50 of 150 nM was found for `Nc1ncc(-c2ccc(C3(C(=O)Nc4ccc5c(c4)CCC5)CCOCC3)cc2)cn1` [Example 6, 4-[4-(2-aminopyrimidin-5-yl)phenyl]-N-(2,3-dihydro-1H-inden-5-yl)tetrahydro-2H-pyran-4-carboxamide] in this work. An IC50 of 280 nM was found for `CN1CCN(c2cccc(NC(=O)C3(c4ccc(-c5cnc(N)nc5)cc4)CCOCC3)c2)CC1` [Example 53, 4-[4-(2-aminopyrimidin-5-yl)phenyl]-N-[3-(4-methylpiperazin-1-yl)phenyl]tetrahydro-2H-pyran-4-carboxamide] in this work. An IC50 of 13 nM was found for `Cc1nc(NC(=O)C2(c3ccc(-c4cnc(N)nc4)cc3)CCC2)sc1C` [Example 209, 1-[4-(2-aminopyrimidin-5-yl)phenyl]-N-(4,5-dimethyl-1,3-thiazol-2-yl)cyclobutanecarboxamide] in this work. An IC50 of 260 nM was found for `Cn1c(=O)c2cc(NC(=O)C3(c4ccc(-c5cnc(N)nc5)cc4)CCOCC3)cnc2n(C)c1=O` [Example 69, 4-[4-(2-aminopyrimidin-5-yl)phenyl]-N-(1,3-dimethyl-2,4-dioxo-1,2,3,4-tetrahydropyrido[2,3-d]pyrimidin-6-yl)tetrahydro-2H-pyran-4-carboxamide] in this work. An IC50 of 22 nM was found for `Nc1ncc(-c2ccc(C3(C(=O)Nc4n[nH]c(-c5ccccc5)n4)CCC3)cc2)cn1` [Example 243, 1-[4-(2-aminopyrimidin-5-yl)phenyl]-N-(5-phenyl-1H-1,2,4-triazol-3-yl)cyclobutanecarboxamide] in this work. An IC50 of 56.5 nM was found for `Nc1ncc(-c2ccc(C3(C(=O)Nc4ccccc4-c4ccccc4)CCC3)cc2)cn1` [Example 202, 1-[4-(2-aminopyrimidin-5-yl)phenyl]-N-(biphenyl-2-yl)cyclobutanecarboxamide] in this work. An IC50 of 470 nM was found for `Nc1ncc(-c2ccc(C3(C(=O)Nc4ccnc(O)c4)CCC3)cc2)cn1` [Example 220, 1-[4-(2-aminopyrimidin-5-yl)phenyl]-N-(2-hydroxypyridin-4-yl)cyclobutanecarboxamide] in this work. An IC50 of 22.5 nM was found for `Cc1ccc(NC(=O)C2(c3ccc(-c4cnc(N)nc4)cc3)CCC2)cn1` [Example 249, 1-[4-(2-aminopyrimidin-5-yl)phenyl]-N-(6-methylpyridin-3-yl)cyclobutanecarboxamide] in this work. An IC50 of 190 nM was found for `Cc1cccc(NC(=O)C2(c3ccc(-c4cnc(N)nc4)cc3)CCOCC2)n1` [Example 141, 4-[4-(2-aminopyrimidin-5-yl)phenyl]-N-(6-methylpyridin-2-yl)tetrahydro-2H-pyran-4-carboxamide] in this work. An IC50 of 4.4 nM was found for `NC(=O)c1ccc(NC(=O)C2(c3ccc(-c4cnc(N)nc4)cc3)CCC2)cn1` [Example 240, 5-[({1-[4-(2-aminopyrimidin-5-yl)phenyl]cyclobutyl}carbonyl)amino]pyridine-2-carboxamide] in this work. An IC50 of 121 nM was found for `Nc1ncc(-c2ccc(C3(C(=O)Nc4ccc(Cc5ccncc5)cc4)CCOCC3)cc2)cn1` [Example 28, 4-[4-(2-aminopyrimidin-5-yl)phenyl]-N-[4-(pyridin-4-ylmethyl)phenyl]tetrahydro-2H-pyran-4-carboxamide] in this work. An IC50 of 260 nM was found for `Nc1ncc(-c2ccc(C3(C(=O)Nc4cc(-c5cccnc5)no4)CCOCC3)cc2)cn1` [Example 57, 4-[4-(2-aminopyrimidin-5-yl)phenyl]-N-[3-(pyridin-3-yl)-1,2-oxazol-5-yl]tetrahydro-2H-pyran-4-carboxamide] in this work.
